Consider 20 compounds from patent US7345070B2, “Peroxisome proliferator activated receptor agonists” (Eli Lilly and Company, priority 2000, dated 2008).

SMILES strings stand for the structures.

One assay has as its system HuapoAI transgenic mice. Kind of assay: Evaluation of triglyceride and cholesterol level in HuapoAI transgenic mice. The assay is classed as in vivo. The note with it: Mus musculus, 168 h, human apoAI transgenic mice, 30 mg/kg oral gavage daily for 7 days; for change in vivo at 30 mg/kg: FPLC area under the curve, over mice receiving vehicle, read-out: % HDLc Increase; for inhibition in vivo at 30 mg/kg: serum 3 h after dosing, read-out: Reduction in Triglyceride Serum Level. The essentials: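 Mice got daily oral gavage doses for 7 days, and blood was drawn by cardiac puncture under isoflurane 3 h after the final dose. Serum triglycerides and total cholesterol were measured colorimetrically against standard curves. VLDL, LDL and HDL cholesterol came from Superose 6 FPLC in PBS-EDTA with in-line detection, as peak areas.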

The subject of another assay is huPPARα. Kind of assay: Cotransfection assay in CV-1 cells, huPPARα. The format is cell-based, human. As to conditions: GAL4 chimeric system, relative to PPARα agonist reference molecule. In short, it runs like this: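 Binding: SPA displacement of tritiated PPARα or PPARγ agonist, giving IC50. Cotransfection: CV-1 cells with CMV-driven PPAR and RXRα, luciferase reporter (AOX PPRE/TK or GAL4 chimera); efficacy relative to PPARα or PPARγ reference agonists, from curve fit or at 10 μM.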

Regarding `Cc1oc(C2CCCCC2)nc1CCOc1ccc(CC(C)(Oc2ccc(C3CCCCC3)cc2)C(=O)O)cc1` (stereo not drawn) [Example 34, 3-{4-[2-(2-Cyclohexyl-5-methyl-oxazol-4-yl)-ethoxy]-phenyl}-2-(4-cyclohexyl-phenoxy)-2-methyl-propionic acid], in the assay on HuapoAI transgenic mice, the change in vivo at 30 mg/kg was 95% and the inhibition in vivo at 30 mg/kg came out at 57.1%. In addition, in the assay with huPPARα, the “huPPARα CTF Efficacy” value stood at 112%.
Taken in the same sequence, the figures for `Cc1ccc(OC(C)(Cc2ccc(OCCc3nc(C4CCCCC4)oc3C)cc2)C(=O)O)cc1C` (stereo not drawn) [Example 35, 3-{4-[2-(2-Cyclohexyl-5-methyl-oxazol-4-yl)-ethoxy]-phenyl}-2-(3,4-dimethyl-phenoxy)-2-methyl-propionic acid] were 77%, 32.3% and 78%.
Taken in the same sequence, the figures for `Cc1ccc(OC(C)(Cc2ccc(OCCc3nc(-c4cccs4)oc3C)cc2)C(=O)O)cc1C` (stereo not drawn) [Example 36, 2-(3,4-Dimethyl-phenoxy)-2-methyl-3-{4-[2-(5-methyl-2-thiophen-2-yl-oxazol-4-yl)-ethoxy]-phenyl}-propionic acid] were 30%, 23% and 70%.
In the same order, the values of `Cc1ccc(OC(C)(Cc2ccc(OCCc3nc(-c4cccs4)oc3C)cc2)C(=O)O)cc1` (stereo not drawn) [Example 40, 2-Methyl-3-{4-[2-(5-methyl-2-thiophen-2-yl-oxazol-4-yl)-ethoxy]-phenyl}-2-p-tolyloxy-propionic acid] are 131%, 77.6% and 77%.
For `Cc1ccc(OC(C)(Cc2ccc(OCCc3nc(C4CCCCC4)oc3C)cc2)C(=O)O)cc1` (stereo not drawn) [Example 41, 3-{4-[2-(2-Cyclohexyl-5-methyl-oxazol-4-yl)-ethoxy]-phenyl}-2-methyl-2-p-tolyloxy-propionic acid], in the assay with HuapoAI transgenic mice, the change in vivo at 30 mg/kg was determined as 96% and the inhibition in vivo at 30 mg/kg was found to be 57.8%. The “huPPARα CTF Efficacy” value with huPPARα was 49%.
Take `Cc1oc(C2CCCCC2)nc1CCOc1ccc(CC(C)(Oc2ccc(OC(F)(F)F)cc2)C(=O)O)cc1` (stereo not drawn) [Example 44, 3-{4-[2-(2-Cyclohexyl-5-methyl-oxazol-4-yl)-ethoxy]-phenyl}-2-methyl-2-(4-trifluoromethoxy-phenoxy)-propionic acid]: in the assay on HuapoAI transgenic mice, the change in vivo at 30 mg/kg is 151%. For the same compound, in the assay with huPPARα, the “huPPARα CTF Efficacy” value amounted to 54%.
On to `Cc1oc(-c2cccs2)nc1CCOc1ccc(CC(C)(Oc2ccc(C(F)(F)F)cc2)C(=O)O)cc1` (stereo not drawn) [Example 51, 2-Methyl-3-{4-[2-(5-methyl-2-thiophen-2-yl-oxazol-4-yl)-ethoxy]-phenyl}-2-(4-trifluoromethyl-phenoxy)-propionic acid], for which, in the assay on HuapoAI transgenic mice, the change in vivo at 30 mg/kg was 122% and the inhibition in vivo at 30 mg/kg worked out at 72.8%. Also, the “huPPARα CTF Efficacy” value in the assay with huPPARα turned out to be 152%.
Taken in the same sequence, the figures for `Cc1oc(C2CCCCC2)nc1CCOc1ccc(CC(C)(Oc2ccc(C(F)(F)F)cc2)C(=O)O)cc1` (stereo not drawn) [Example 52, 3-{4-[2-(2-Cyclohexyl-5-methyl-oxazol-4-yl)-ethoxy]-phenyl}-2-methyl-2-(4-trifluoromethyl-phenoxy)-propionic acid] were 185%, 75.9% and 108%.
For `Cc1oc(C2CCCCC2)nc1CCOc1ccc(CC(C)(Oc2ccc(F)c(F)c2)C(=O)O)cc1` (stereo not drawn) [Example 58, 3-{4-[2-(2-Cyclohexyl-5-methyl-oxazol-4-yl)-ethoxy]-phenyl}-2-(3,4-difluoro-phenoxy)-2-methyl-propionic acid], in the assay on HuapoAI transgenic mice, the change in vivo at 30 mg/kg amounted to 74% and the inhibition in vivo at 30 mg/kg turned out to be 26.5%. Also, the “huPPARα CTF Efficacy” value in the assay with huPPARα came to 149%.
Taken in the same sequence, the figures for `Cc1cccc(OC(C)(Cc2ccc(OCCc3nc(-c4cccs4)oc3C)cc2)C(=O)O)c1` (stereo not drawn) [Example 61, 2-Methyl-3-{4-[2-(5-methyl-2-thiophen-2-yl-oxazol-4-yl)-ethoxy]-phenyl}-2-m-tolyloxy-propionic acid] were 72%, 17.6% and 52%.
Taken in the same sequence, the figures for `Cc1cccc(OC(C)(Cc2ccc(OCCc3nc(C4CCCCC4)oc3C)cc2)C(=O)O)c1` (stereo not drawn) [Example 62, 3-{4-[2-(2-Cyclohexyl-5-methyl-oxazol-4-yl)-ethoxy]-phenyl}-2-methyl-2-m-tolyloxy-propionic acid] were 72%, 2.5% and 101%.
Taken in the same sequence, the figures for `Cc1oc(-c2cccs2)nc1CCOc1ccc(CC(C)(Oc2ccc(F)cc2)C(=O)O)cc1` (stereo not drawn) [Example 64, 2-(4-Fluoro-phenoxy)-2-methyl-3-{4-[2-(5-methyl-2-thiophen-2-yl-oxazol-4-yl)-ethoxy]-phenyl}-propionic acid] were 66%, 43% and 50%.
On to `Cc1oc(C2CCCCC2)nc1CCOc1ccc(CC(C)(Oc2ccc(F)cc2)C(=O)O)cc1` (stereo not drawn) [Example 65, 3-{4-[2-(2-Cyclohexyl-5-methyl-oxazol-4-yl)-ethoxy]-phenyl}-2-(4-fluoro-phenoxy)-2-methyl-propionic acid], for which, in the assay with HuapoAI transgenic mice, the change in vivo at 30 mg/kg was found to be 75% and the inhibition in vivo at 30 mg/kg amounted to 54%. In addition, the “huPPARα CTF Efficacy” value in the assay with huPPARα is on record as 46%.
Taken in the same sequence, the figures for `Cc1oc(C2(C)CCCCC2)nc1CCOc1ccc(C[C@](C)(Oc2ccc(F)cc2)C(=O)O)cc1` [Example 67, (S)-2-(4-Fluoro-phenoxy)-2-methyl-3-(4-{2-[5-methyl-2-(1-methyl-cyclohexyl)-oxazol-4-yl]-ethoxy}-phenyl)-propionic acid] were 76%, 67.8% and 34%.
For the compound `Cc1oc(-c2cccs2)nc1CCOc1ccc(CC(C)(Oc2cccc(C(F)(F)F)c2)C(=O)O)cc1` (stereo not drawn) [Example 71, 2-Methyl-3-{4-[2-(5-methyl-2-thiophen-2-yl-oxazol-4-yl)-ethoxy]-phenyl}-2-(3-trifluoromethyl-phenoxy)-propionic acid], the change in vivo at 30 mg/kg in the assay with HuapoAI transgenic mice came out at 34%. The “huPPARα CTF Efficacy” value in the assay with huPPARα was found to be 142%.
Take `COc1cccc(OC(C)(Cc2ccc(OCCc3nc(C4CCCCC4)oc3C)cc2)C(=O)O)c1` (stereo not drawn) [Example 76, 3-{4-[2-(2-Cyclohexyl-5-methyl-oxazol-4-yl)-ethoxy]-phenyl}-2-(3-methoxy-phenoxy)-2-methyl-propionic acid]: in the assay with HuapoAI transgenic mice, the change in vivo at 30 mg/kg stood at 26% and the inhibition in vivo at 30 mg/kg was 27.1%. Besides, in the assay on huPPARα, the “huPPARα CTF Efficacy” value was determined as 63%.
In the same order, the values of `Cc1oc(-c2ccccc2)nc1CCOc1ccc(CC(C)(Oc2ccc3c(c2)OCO3)C(=O)O)cc1` (stereo not drawn) [Example 78, 2-(Benzo[1,3]dioxol-5-yloxy)-2-methyl-3-{4-[2-(5-methyl-2-phenyl-oxazol-4-yl)-ethoxy]-phenyl}-propionic acid] are 95%, 64.8% and 52%.
In the same order, the values of `Cc1oc(C2CCCCC2)nc1CCOc1ccc(CC(C)(Oc2ccc3c(c2)OCO3)C(=O)O)cc1` (stereo not drawn) [Example 80, 2-(Benzo[1,3]dioxol-5-yloxy)-3-{4-[2-(2-cyclohexyl-5-methyl-oxazol-4-yl)-ethoxy]-phenyl}-2-methyl-propionic acid] are 123%, 36.6% and 84%.
Taken in the same sequence, the figures for `Cc1oc(CCc2ccccc2)nc1CCOc1ccc(C[C@](C)(Oc2ccccc2)C(=O)O)cc1` [Example 86, (S)-2-Methyl-3-{4-[2-(5-methyl-2-phenethyl-oxazol-4-yl)-ethoxy]-phenyl}-2-phenoxy-propionic acid] were 36%, 30.1% and 24%.
As for `Cc1oc(-c2ccccc2)nc1CCCc1ccc(CC(C)(Oc2ccccc2)C(=O)O)s1` (stereo not drawn) [Example 91, 2-Methyl-3-{5-[3-(5-methyl-2-phenyl-oxazol-4-yl)-propyl]-thiophen-2-yl}-2-phenoxy-propionic acid], the change in vivo at 30 mg/kg in the assay on HuapoAI transgenic mice worked out at 46%. The “huPPARα CTF Efficacy” value in the assay on huPPARα came out at 47%.
